# Results from publication PMC12013189, “Phospho-regulated tethering of focal adhesion kinase to vinculin links force transduction to focal adhesion signaling” (Cell Communication and Signaling : CCS, 2025).
# Legend:
# [1] = biological target: T1, FAT domain of FAK (hFAK904-1052 WT) (Homo sapiens, UniProt Q05397); assay: Fluorescence anisotropy binding of FITC LD peptides to FAT-WT; details: versus single LD motifs
# T1 construct: Expression plasmids for FAT (hFAK904-1052 WT and mutants H14, H23 and H14-23); 6xHis (TEV cleavable) (N, cleaved yes); made in house; host or cells: E. coli BL21(DE3)
# T1 sequence (Q05397 904-1052): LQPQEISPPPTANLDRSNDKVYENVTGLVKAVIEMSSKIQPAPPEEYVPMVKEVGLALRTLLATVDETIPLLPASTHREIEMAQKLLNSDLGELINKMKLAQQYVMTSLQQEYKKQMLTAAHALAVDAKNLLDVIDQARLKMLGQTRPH
# Text: Expression plasmids for FAT (hFAK904-1052 WT and mutants H14, H23 and H14-23), Vin-FL (hVinculin1-1066) and Vin-T (hVinculin891-1066) were ordered from GenScript in the pET28(+) vector, adding a TEV cleavable N-terminal 6xHis tag to the expressed proteins. Mutant FAT-H14 contains the mutations I936A, H1025A, K1032A; FAT-H23 contains the mutations K955A, R962A, I998A and FAT-14-23 contains the combined mutations I936A, K955A, R962A, I998A, H1025A, K1032A. All plasmids were introduced into E.coli strain BL21(DE3) for expression. Cells were grown in LB media, induced with 1 mM IPTG at an OD (600 nm) of 0.6 and grown over night at 20 °C. Cells were pelleted at 6000 rpm and resuspended in 20 mM Tris pH8, 200 mM NaCl, 5% Glycerol, 10 mM imidazole, 2mM TCEP, 1mM PMSF supplemented with cOmplete protein inhibitor cocktail (Roche). Cells were lysed by sonication and insoluble components removed by centrifugation at 40 K for 1 h at 4 °C. Soluble lysates were cleared through 0.45 μm filters and loaded onto His-Trap affinity columns (Cytiva), washed with step gradients up to 30 mM imidazole and eluted with a gradient up to 500 mM imidazole. Peak-fractions were digested over night with TEV protease (molar ratio ~ 1: 20) at 4 °C. Proteins were diluted to 50 mM NaCl and loaded onto a Source 15Q column, washed with 20 mM Tris pH8, 50 mM NaCl, 5% Glycerol, 1mM TCEP and eluted with a gradient up to 1 M NaCl. Peak fractions were mixed with 1 ml of Ni-NTA beads to remove TEV and uncleaved protein, adding 10 mM imidazole to prevent non-specific binding. The flow-through was concentrated, loaded onto a Superdex200 16/60 column and eluted in 20 mM Tris pH8, 200 mM NaCl, 5% Glycerol, 2mM TCEP. Peak fractions were concentrated, aliquots flash frozen in LN2 and stored at -80 °C.
# (§1) Binding curves were determined in a total of 20 µl in black 384 well plates, by titrating protein concentrations (typically up to 50 µM) at a fixed concentration of 25 nM FITC labelled LD peptides (Apeptide Co. Ltd) in 20 mM Tris pH7.5, 150 mM NaCl, 1mM TCEP. Anisotropy measurements were preformed at 22 °C on a Spark® Multimode microplate reader (Tecan) with polarizers, at an excitation wavelength of 485 nm and an emission wavelength of 535 nm (20 nm bandwidth). KD values were extracted by fitting a one-site binding model using the GraphPad Prism software, using the equation: Y = Bmax*X/(KD + X), where Y is the measured anisotropy, X the protein concentration and Bmax the maximal anisotropy value at binding saturation.
# [2] = system: GST-Vin-T and His-FAT-H14; assay: GST-pulldown of His-FAT with GST-Vin-T and LD2/4; assay type: binding, human; details: 30 µM GST-Vin-T, 10 µM LD2/4, 30 µM His-FAT, western blot anti-His
# Description: 30 µM GST-Vin-T, 10 µM LD2/4 and 30 µM His-FAT proteins were incubated with glutathione sepharose beads for 1 h, centrifuged for 1 min at […] and washed 3x with 20 mM Tris pH 7.5, 150 mM NaCl, 0.1% Nonidet P40. Proteins co-sedimented with beads were resuspended in SDS Laemmli buffer, heated to 96 °C for 5 min and subjected to SDS-PAGE and western blotting. His-FAT proteins (WT or mutants) were detected using a primary mouse anti-His antibody (Proteintech) and a secondary HRP conjugated goat anti-mouse antibody (Merck).
# [3] = system: FAT-WT and Vin-T; assay: svAUC peak integration, FAT-WT+LD2/4+Vin-T; assay type: binding, human
# Description: (§2) For svAUC experiments, FAT and Vin-T proteins at 30 µM were incubated with 10 µM LD2/4 peptide in 20 mM Tris pH 7.5, 200 mM NaCl, 5% Glycerol and 1 mM TCEP. svAUC was performed at 20 °C at 48,000 rpm (Vin-T + LD1 + LD2, Fig. S2) or 58,000 rpm (FAT + LD2/4 + Vin-T; Fig. 3) in a XL-I analytical ultracentrifuge (Beckman-Coulter Inc.) equipped with both UV-VIS absorbance and Raleigh interference detection systems, using an An-50Ti rotor, and Epon-charcoal standard double-sector centerpieces (optical pathlength 12 mm or 4 mm for measurements at 100 µM shown in Fig. S2). Sedimentation profiles were recorded at 280 nm. Differential sedimentation coefficient distributions were calculated by least-squares boundary modelling of sedimentation velocity data using the continuous distribution c(s) Lamm equation model as implemented by SEDFIT [46]. These s values were corrected to standard conditions (water, 20 °C, and infinite dilution) using the program SEDNTERP [32] to get the corresponding standard s values (s20,w).
# [4] = system: FAT-H14; assay: svAUC peak integration, FAT-H14+LD2/4; assay type: binding, human; details: 30 µM FAT-H14 + 10 µM LD2/4
# Description: as §2
# [5] = system: FAT-WT; assay: svAUC peak integration, FAT-WT+LD2/4; assay type: binding, human
# Description: as §2
# [6] = system: FAT-H23 and Vin-T; assay: svAUC peak integration, FAT-H23+LD2/4+Vin-T; assay type: binding, human; details: 30 µM FAT-H23 + 10 µM LD2/4 + 30 µM Vin-T
# Description: as §2
# [7] = system: FAT-H14-23 (I936A, K955A, R962A, I998A, H1025A, K1032A); assay: Fluorescence anisotropy binding to FAT-H14-23 mutant; parameters: species or system human; details: both sites mutated
# Text: Expression plasmids for FAT (hFAK904-1052 WT and mutants H14, H23 and H14-23), Vin-FL (hVinculin1-1066) and Vin-T (hVinculin891-1066) were ordered from GenScript in the pET28(+) vector, adding a TEV cleavable N-terminal 6xHis tag to the expressed proteins. Mutant FAT-H14 contains the mutations I936A, H1025A, K1032A; FAT-H23 contains the mutations K955A, R962A, I998A and FAT-14-23 contains the combined mutations I936A, K955A, R962A, I998A, H1025A, K1032A. All plasmids were introduced into E.coli strain BL21(DE3) for expression. Cells were grown in LB media, induced with 1 mM IPTG at an OD (600 nm) of 0.6 and grown over night at 20 °C. […]
# as §1
# [8] = system: FAT-H14 and Vin-T; assay: svAUC peak integration, FAT-H14+LD2/4+Vin-T; assay type: binding, human; details: 30 µM FAT-H14 + 10 µM LD2/4 + 30 µM Vin-T
# Description: as §2
# [9] = system: FAT-H23; assay: svAUC peak integration, FAT-H23+LD2/4; assay type: binding, human; details: 30 µM FAT-H23 + 10 µM LD2/4
# Description: as §2
# [10] = system: Vin-T; assay: svAUC peak integration, Vin-T+LD2/4; assay type: binding, human; details: 30 µM Vin-T + 10 µM LD2/4
# Description: as §2
# [11] = 30 µM FAT-WT + 10 µM LD2/4 + 30 µM Vin-T
# [12] = 30 µM FAT-WT + 10 µM LD2/4, 20 °C, 280 nm
sequence,measurement,setting,value
SNLSELDRLLLELNAVQHNGSGSGGSGGSGGSGGSGGSGGSGGSGGSATRELDELMASLSD [LD2/4],increase of affinity for FAT by presence of both LD motifs,[1],approximately 15 fold
same,His-FAT-H14 pulled down with GST-Vin-T,[2],only pulled down in the presence of the LD2/4 peptide
same,c(Peak 2) [1-2 s(S)],[3]; [11],0.68
same,c(total),[3]; [11],1.08
same,c(Peak 3) [ >2 s(S)],"[3]; 30 µM FAT-WT + 10 µM LD2/4 + 30 µM Vin-T, ~2.4 S peak",0.40
same,amount (c) of tripartite FAT:LD2/4:Vin-T complex,"[3]; difference of 2.4 S peak in presence and absence of Vin-T, FAT-WT",≈ 0.25
same,c(Peak 1) [~ 1 s(S)],[4],0.11
same,c(Peak 2) [1-2 s(S)],[4],0.45
same,c(Peak 3) [ >2 s(S)],[4],0.05
same,c(total),[4],0.61
same,c(total),[5]; 30 µM FAT-WT + 10 µM LD2/4,0.58
same,c(Peak 1) [~ 1 s(S)],[5]; [12],0.06
same,c(Peak 2) [1-2 s(S)],[5]; [12],0.37
same,c(Peak 3) [ >2 s(S)],"[5]; 30 µM FAT-WT + 10 µM LD2/4, ~2.4 S peak, absence of Vin-T",0.15
same,c(Peak 1) [~ 1 s(S)],[6],0.08
same,c(Peak 2) [1-2 s(S)],[6],0.80
same,c(total),[6],1.18
same,c(Peak 3) [ >2 s(S)],[6]; ~2.3 S peak,0.30 and ≈ 0.30
same,"binding to FAT-H14-23, in words",[7],no significant binding
same,c(Peak 2) [1-2 s(S)],[8],0.57
same,c(total),[8],1.09
same,c(Peak 3) [ >2 s(S)],[8]; 2.4 S peak,0.52
same,c(Peak 1) [~ 1 s(S)],[9],0.11
same,c(Peak 2) [1-2 s(S)],[9],0.45
same,c(Peak 3) [ >2 s(S)],[9],0.03
same,c(total),[9],0.59
same,c(Peak 1) [~ 1 s(S)],[10],0.18
same,c(Peak 2) [1-2 s(S)],[10],0.59
same,c(total),[10],0.77
